In data set [1] the test system is collagen‐induced arthritis (CIA) model mice. Kind of data set: Collagen‐induced arthritis (CIA) mice, prophylactic regimen. The class given is in vivo, DBA/1 mice. Particulars: prophylactic administration in CIA mice. As for the experimental part: Male DBA/1 mice (6–8 weeks old) were purchased from Huafukang Co. Ltd. (Beijing, China) and fed under specific pathogen‐free conditions. All experiments were carried out in accordance with guidelines prescribed by the Animal Care and Use Committee of Peking University People's Hospital (2019PHE047). CIA induction was established by following a previously published protocol.^[ [41] ^] Briefly, DBA/1 mice were immunized intradermally at the base of the tail with 200 µg of bovine type II collagen (CII, Chondrex) emulsified in complete Freund's adjuvant (Sigma‐Aldrich, St Louis, MO, USA) in equal volumes. Three weeks later, a booster was delivered using 100 µg CII emulsified in Freund's incomplete adjuvant. Mice were monitored for signs of arthritis after the booster immunization. Clinical score was assessed by using the following system as detailed previously:^[ [41] ^] […]
The paws from each mouse were collected and fixed in 4% paraformaldehyde (PFA) for 48 h, then scanned using a Micro‐CT scanner (Quantum FX, Caliper, USA). […] A microscopic assessment of sagittal sections was performed and histopathological changes were scored based on the following previously reported parameters:^[ [42] ^] […]

Another data set has as its target T1, murine IL‐21R (Mus musculus, UniProt Q9JHX3).
T1 construct: Fc region of human IgG1 (C); purchased Sino Biological
Kind of data set: SPR binding to immobilized murine IL‐21R. The method, then: The binding affinities of salivaricins to IL‐6Rα or IL‐21R were assayed using the Biacore 8K instrument (GE Healthcare). Murine IL‐6Rα (20 nM, abcam) or IL‐21R ([…], Sino Biological) were immobilized on a CM5 sensor chip using standard amine‐coupling at 25 °C with PBS‐P running buffer (GE Healthcare), as described previously.^[ [39] ^] […] Regeneration was achieved by extended washing with NaOH (5 mm) after each sample injection. The dissociation constants (KD) of salivaricins were obtained by fitting the data sets to steady‐state affinity model using Biacore 8K Evaluation Software.
In general terms: SPR reads the build-up and loss of mass on a sensor chip optically.

Where [2] appears, read: Table S4, immobilized mIL-21R, Steady state affinity model.

Peptide text beside a SMILES is read from it.

T1 sequence (Q9JHX3 20-529): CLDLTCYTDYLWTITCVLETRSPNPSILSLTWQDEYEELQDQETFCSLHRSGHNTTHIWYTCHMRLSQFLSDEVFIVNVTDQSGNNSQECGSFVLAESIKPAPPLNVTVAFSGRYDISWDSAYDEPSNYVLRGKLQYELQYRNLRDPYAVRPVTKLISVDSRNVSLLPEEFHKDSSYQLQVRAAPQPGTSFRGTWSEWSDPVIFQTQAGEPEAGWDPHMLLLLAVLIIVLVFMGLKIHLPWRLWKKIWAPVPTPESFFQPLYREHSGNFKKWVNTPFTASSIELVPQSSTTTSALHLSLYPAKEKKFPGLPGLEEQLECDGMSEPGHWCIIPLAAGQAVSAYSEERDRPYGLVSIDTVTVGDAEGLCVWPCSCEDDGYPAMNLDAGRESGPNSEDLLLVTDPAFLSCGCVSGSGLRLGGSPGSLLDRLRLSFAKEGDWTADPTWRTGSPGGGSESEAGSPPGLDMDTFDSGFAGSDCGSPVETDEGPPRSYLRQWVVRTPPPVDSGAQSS

Consider `CC[C@H](C)[C@H](NC(=O)[C@@H](NC(=O)[C@H](C)NC(=O)[C@H](Cc1ccccc1)NC(=O)[C@H](Cc1c[nH]c2ccccc12)NC(=O)CNC(=O)[C@@H](NC(=O)CNC(=O)[C@H](CCCNC(=N)N)NC(=O)[C@@H](N)CCCCN)[C@@H](C)O)[C@@H](C)O)C(=O)N[C@H](C(=O)N[C@@H](CC(=O)O)C(=O)N[C@@H](CC(=O)O)C(=O)N[C@@H](CS)C(=O)N1CCC[C@H]1C(=O)N[C@@H](CC(N)=O)C(=O)N[C@@H](CO)C(=O)N[C@H](C(=O)N[C@@H](Cc1ccccc1)C(=O)N[C@H](C(=O)N[C@@H](CS)C(=O)N[C@@H](CS)C(=O)O)C(C)C)C(C)C)[C@@H](C)O` [salivaricin A2] (H-KRGTGWFATITDDCPNSVFVCC-OH), for which the body weight result in data set [1] is “without affecting body weight”. The Kd at murine IL‐21R (Figure 5D legend, mutant experiment, analyte 12.5–800 µM, immobilized murine IL‐21R 20 nM) worked out at 29.4 µM; on murine IL‐21R (setting [2]), 12.6 µM.

In the case of `CC[C@H](C)[C@H](NC(=O)[C@@H](NC(=O)CNC(=O)CNC(=O)CN)C(C)C)C(=O)N[C@@H](CCC(N)=O)C(=O)N[C@H](C(=O)N[C@H](C(=O)N[C@@H](CO)C(=O)N[C@@H](Cc1c[nH]cn1)C(=O)N[C@@H](CCC(=O)O)C(=O)N[C@@H](CS)C(=O)N[C@@H](CCCNC(=N)N)C(=O)N[C@@H](CCSC)C(=O)N[C@@H](CC(N)=O)C(=O)N[C@@H](CO)C(=O)N[C@@H](Cc1c[nH]c2ccccc12)C(=O)N[C@@H](CCC(N)=O)C(=O)N[C@@H](Cc1ccccc1)C(=O)N[C@@H](CC(C)C)C(=O)N[C@@H](Cc1ccccc1)C(=O)N[C@H](C(=O)N[C@@H](CS)C(=O)N[C@@H](CS)C(=O)N[C@@H](CO)C(=O)O)[C@@H](C)O)[C@@H](C)CC)[C@@H](C)O` [salivaricin B] (H-GGGVIQTISHECRMNSWQFLFTCCS-OH), in data set [1], the body weight entry is “without affecting body weight”. The Kd on murine IL‐21R (Figure S8D, salivaricin B mutant experiment, analyte 12.5-800, immobilized murine IL-21R 20 nM) is 12.6 µM; on murine IL‐21R (setting [2]), 10.1 µM.

As a reminder, the Kd is a measure of binding affinity in units of concentration. High values mean lower affinity, low ones higher affinity.

Source of the values: paper PMC9596850, “Tonsillar Microbiome‐Derived Lantibiotics Induce Structural Changes of IL‐6 and IL‐21 Receptors and Modulate Host Immunity” (Advanced Science, 2022).
